“And” between values parts separate entries of the source, which are not always exact repeats. Equal values may be shown once.
Key:
[1] = system: streptozotocin-diabetic rats; experiment: glucose level (in % of controls) upon oral administration to streptozotocin-diabetic rats; format: in vivo, rat (Female Albino-rats)
Protocol: (§1) A compound encompassed by the formula I, namely, 3-methyl-N-(5-methyl-3,3-diphenyl-pyrrolin-2-yl)pyrazole-5-carboxamide, upon oral administration to maximal streptozotocin-diabetic rats gave the following values for the glucose and fatty acid levels (in % of controls):
(§2) The test procedure was that described by E. LORCH in Diabetologia 7, 195-203 (1971).
(§3) Female (140-160 gr) Albino-rats were starved (24 hrs) and refed (16 hrs) one week after Streptozotocin administration (60 mg/kg s.c.). Mean plasma glucose values: 500-600 mg/100 ml plasma. Diabetic starved-refed control animals received the suspension vehicle alone.

[2] = system: streptozotocin-diabetic rats; experiment: free fatty acid level (in % of controls) upon oral administration to streptozotocin-diabetic rats; format: in vivo, rat (Female Albino-rats)
Protocol: as §1, §2, §3

[3] = DL50 in the rat, single oral application; conditions: in vivo, observation period 10 days
Excerpt: The DL50 in the rat amounts to 8 g/kg (single oral application: observation period 10 days).

[4] = 100 μmol/kg oral, 4 hours after application
[5] = 300 μmol/kg oral, 2 hours after application
[6] = 300 μmol/kg oral, 6 hours after application
[7] = 1000 μmol/kg oral, 4 hours after application

SMILES: Cc1cc(C(=O)NC2=NC(C)CC2(c2ccccc2)c2ccccc2)[nH]n1 (stereo not drawn) [3-methyl-N-(5-methyl-3,3-diphenyl-1-pyrrolin-2-yl)-pyrazole-5-carboxamide]
- Glucose ([1]; 100 μmol/kg oral, 2 hours after application): 70 % of controls
- Glucose [1, 4]: 80 % of controls and 96 % of controls and 50 % of controls
- Glucose ([1]; 100 μmol/kg oral, 6 hours after application): 60 % of controls
- Glucose [1, 5]: 76 % of controls and 70 % of controls
- Glucose [1, 6]: 71 % of controls and 59 % of controls
- Glucose [1, 7]: 89 % of controls and 80 % of controls
- Free fatty acids [2, 4]: 56 % of controls
- Free fatty acids [2, 5]: 59 % of controls
- Free fatty acids ([2]; 300 μmol/kg oral, 4 hours after application): 72 % of controls and 62 % of controls
- Free fatty acids [2, 6]: 50 % of controls
- Free fatty acids [2, 7]: 57 % of controls
- LD50 at 240 h [3]: 8000 mg/kg

From patent US4005100A, “Pyrazole-5-carboxamides” (Hoffmann-La Roche Inc., priority 1972, dated 1977)
